Where two headings read alike, the source gives them in different places.
Columns and labels:
[1] = Bioavailability testing, IV treatment (whole blood, LC/MS); format: in vivo; conditions: male CD-1 mice; for AUC: whole blood; for clearance / Vd: mouse, in vivo; for Vd: read-out: Vdss
Procedure: (§1) Compositions comprising the free base of 1-Na-PP1 and 1-NM-PP1 (Control) and the hydrochloride salt of 1-Na-PP1 and 1-NM-PP1 formulated with Vitamin E TPGS are administered to male CD-1 mice intraperitoneally (IP) and intravenously (IV). Whole blood samples were collected from three animals per time point and prior via cardiac puncture into EDTA tubes and placed on wet ice. Samples were analyzed after drying and predissolution in 0.1:20:80 formic acid:methanol:water by liquid chromatography/mass spectrometry using an Xterra C182.5 micromenter particle size analytical column (15 mm×2.1 mm).

[2] = Bioavailability testing, IP treatment (whole blood, LC/MS); format: in vivo; conditions: 0.793 mg/Kg, male CD-1 mice; for AUC / Cmax: whole blood; for Tmax / bioavailability / half-life / Cmax: mouse, in vivo; for half-life: read-out: T½ (converted)
Procedure: as §1

| Structure (SMILES) | AUC/Dose ([1]; 0.793 mg/Kg) | T½ ([1]; 0.793 mg/Kg) | AUC ([1]; 0.793 mg/Kg) | clearance ([1]; 0.793 mg/Kg) | Vd ([1]; 0.793 mg/Kg) | AUC/Dose [2] | AUC [2] | Tmax [2] | bioavailability [2] | half-life [2] | Cmax [2] | AUC/Dose ([1]; 0.269 mg/Kg) | T½ ([1]; 0.269 mg/Kg) | AUC ([1]; 0.269 mg/Kg) | clearance ([1]; 0.269 mg/Kg) | Vd ([1]; 0.269 mg/Kg) |
| --- | --- | --- | --- | --- | --- | --- | --- | --- | --- | --- | --- | --- | --- | --- | --- | --- |
| CC(C)(C)n1nc(Cc2cccc3ccccc23)c2c(N)ncnc21 [1-NM-PP1 (Control)] | 0.13 ng·h/mL/µg/kg | 23.4 min | 37.08 ng·h/mL | 130 mL/min/kg | 4.1 L/kg | 0.16 ng·h/mL/µg/kg | 134.84 ng·h/mL | 4.98 min | 100% | 85.2 min | 90.6 ng/mL |  |  |  |  |  |
| CC(C)(C)n1nc(-c2cccc3ccccc23)c2c(N)ncnc21 [1-Na-PP1 (Control), 1-tert-butyl-3-naphthalen-1-yl-1H-pyrazolo[3,4-d]pyrimidin-4-ylamine] |  |  |  |  |  | 0.13 ng·h/mL/µg/kg | 99.37 ng·h/mL | 4.98 min | 100% | 90.6 min | 55 ng/mL | 0.12 ng·h/mL/µg/kg | 27.6 min | 32.14 ng·h/mL | 133 mL/min/kg | 5.3 L/kg |

Source: US20030180924A1, “Formulation of certain pyrazolo [3,4,-d] pyrimidines as kinase modulators” (priority 2002, published 2003)
